Source: publication PMC10784468 (Nature Communications, 2024)
Where two headings read alike, the source gives them in different places. Positions of bridges follow the written chain, without caps; N, C: chain ends. Residues, ends and D or L forms follow the SMILES beside them. *: point of attachment. X1 = O=C(O)c1ccc(-c2c3nc(c(-c4ccc(C(=O)O)cc4)c4ccc([nH]4)c(-c4ccc(C(=O)*)cc4)c4nc(c(-c5ccc(C(=O)O)cc5)c5ccc2[nH]5)C=C4)C=C3)cc1; X2 = O=C(O)C/C(=C/C(=O)*)C(=O)O

Experiments:
[1] = system: HUVEC cells; type: cell-based; details: HUVEC cells, pH=7.4
Description: Supplementary Fig. 27. Viability of HUVEC cells after treated with Gi -F (pH=7.4) and Gi-F-CAA (pH=7.4) at different
concentrations for 48 h (n=3 experimental repeats). Experiment was independently repeated three times with
(1 picture or pasted object on this page, not shown here)

[2] = target: T1, GPX4 (Homo sapiens, UniProt P36969); experiment: Intracellular GPX4 activity detection; type: cell-based; parameters: endogenous in cells; host or cells: EJ bladder cancer cells
T1 sequence (P36969 1-197): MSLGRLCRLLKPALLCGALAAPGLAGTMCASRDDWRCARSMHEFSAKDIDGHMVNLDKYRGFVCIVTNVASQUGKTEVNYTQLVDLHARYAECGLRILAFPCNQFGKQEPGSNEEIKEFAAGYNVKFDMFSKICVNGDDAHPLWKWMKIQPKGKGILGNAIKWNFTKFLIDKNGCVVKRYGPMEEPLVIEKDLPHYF
Description: Initially, EJ cells (5 × 10^5) were cultured in 6-well plate with a CO2 incubator overnight at 37 °C. […] Next, EJ cells were collected and washed with PBS for 3 times. Afterwards, the cell lysates were collected by centrifugation at 5000 rpm for 10 min at 4 °C after ultrasonic lysis in an ice bath. Finally, the GPX4 activity were measured with a GPX Assay Kit based on the manufacturer’s instructions.

[3] = Particle size by DLS; type: physicochemical
Description: Nano-ZS 3600 (Malvern Instruments, UK) was used to measure the size distribution of the peptide-porphyrin conjugate solutions. The conjugate solutions (40 μM) were incubated at pH 7.4 or pH 6.5 before measurements. An average value was determined by three repeated measurements at 25 °C for each sample. Besides, transmission electron microscopy (TEM, Tecnai G2 20 S-TWIN) was conducted to observe the morphology and diameters of conjugates in aqueous solution, The conjugates (50 μL, 40 μM) were kept in PB solution at pH 7.4 or pH 6.5, which were dropped on copper meshes. After 5 min, unnecessary liquid was removed and the uranyl acetate solution (10 μL) was dropped on this copper mesh to stain the samples for 10 min. Finally, the copper meshes were washed with deionized water, and dried at room temperature for observation.

[4] = system: EJ cells; experiment: Intracellular Fe2+ ions detection; type: cell-based
Description: Initially, EJ cells (5 × 10^5) were cultured in confocal dish with a CO2 incubator overnight at 37 °C. […] Afterwards, EJ cells were washed with PBS for 3 times and replaced with culture mediums.

[5] = system: GPX4 protein; experiment: Microscale Thermophoresis (MST) ligand binding; details: labelled GPX4
Description: Initially, GPX4 was labeled using Protein Labeling Kit RED-NHS according to the manufacturer’s instructions to investigate the binding affinity of Gi-F-CAA, Gi-F and NGi-F-CAA with GPX4 protein. Afterward, the labelled GPX4 protein was incubated with series of Gi-F-CAA, Gi-F and NGi-F-CAA concentration gradients. Finally, the prepared samples were loaded into silica capillaries and measured with Monolish NT.115. Apparent Kd represented the affinity of assemblies rather than a single molecule. Bovine serum albumin (BSA) was used as control for calculating the apparent binding affinity between Gi-F (nanoparticle) to GPX4 protein. Briefly, as the diameter of nanoparticle is proportional to the molecular weight, according to the reported bovine serum albumin (BSA) protein size and molecular weight (7.2 nm, 66.43 KDa), the molecular weight of Gi-F nanoparticle with an average 78 nm size can be calculated to be […]. The monomer amount Gi-F nanoparticle was calculated as […].

With CC(C)C[C@H](NC(=O)c1ccc(-c2c3nc(c(-c4ccc(C(=O)O)cc4)c4ccc([nH]4)c(-c4ccc(C(=O)O)cc4)c4nc(c(-c5ccc(C(=O)O)cc5)c5ccc2[nH]5)C=C4)C=C3)cc1)C(=O)N[C@@H](CCCCNC(=O)/C=C(/CC(=O)O)C(=O)O)C(=O)N[C@@H](CC(C)C)C(=O)N[C@@H](CCCCN)C(=O)N[C@@H](CC(C)C)C(=O)N[C@@H](CCCCNC(=O)/C=C(/CC(=O)O)C(=O)O)C(=O)NCC(=O)N[C@@H](C)C(=O)N[C@H]1CSSC[C@@H](C(=O)N2CCC[C@H]2C(=O)N[C@H](C(=O)O)C(C)C)NC(=O)[C@@H]2CCCN2C(=O)[C@H](Cc2ccc(O)cc2)NC(=O)[C@H](CC(C)C)NC(=O)[C@@H]2CCCN2C(=O)[C@H](CC(C)C)NC(=O)[C@H](Cc2c[nH]c3ccccc23)NC(=O)[C@H](CC(N)=O)NC1=O [Gi-F-CAA] (X1-LK(X2)LKLK(X2)GACNWLPLYPCPV-OH; disulfide 9-17; C-terminus assumed) the “Cell viability of HUVEC” value ([1]; log concentration (μM) 0, replicate 1) was 101.3%, the “Cell viability of HUVEC” value ([1]; log concentration (μM) 0, replicate 2) was 99.35% and the “Cell viability of HUVEC” value ([1]; log concentration (μM) 0, replicate 3) was 93.55%. For the same molecule, the “Cell viability of HUVEC” value ([1]; log concentration (μM) 0.30103, replicate 1) was 97.11%, the “Cell viability of HUVEC” value ([1]; log concentration (μM) 0.30103, replicate 2) was 93.48% and the “Cell viability of HUVEC” value ([1]; log concentration (μM) 0.30103, replicate 3) was 94.74%. The “Cell viability of HUVEC” value ([1]; log concentration (μM) 0.60206, replicate 1) was 97.32%, the “Cell viability of HUVEC” value ([1]; log concentration (μM) 0.60206, replicate 2) was 86.5% and the “Cell viability of HUVEC” value ([1]; log concentration (μM) 0.60206, replicate 3) was 95.44%. For the same molecule, the “Cell viability of HUVEC” value ([1]; log concentration (μM) 0.90309, replicate 1) was 84.68%, the “Cell viability of HUVEC” value ([1]; log concentration (μM) 0.90309, replicate 2) was 94.46% and the “Cell viability of HUVEC” value ([1]; log concentration (μM) 0.90309, replicate 3) was 84.96%. The “Cell viability of HUVEC” value ([1]; log concentration (μM) 1.20412, replicate 1) was 84.75%, the “Cell viability of HUVEC” value ([1]; log concentration (μM) 1.20412, replicate 2) was 89.22% and the “Cell viability of HUVEC” value ([1]; log concentration (μM) 1.20412, replicate 3) was 82.31%. For the same molecule, the “Cell viability of HUVEC” value ([1]; log concentration (μM) 1.50515, replicate 1) was 77.42%, the “Cell viability of HUVEC” value ([1]; log concentration (μM) 1.50515, replicate 2) was 83.56% and the “Cell viability of HUVEC” value ([1]; log concentration (μM) 1.50515, replicate 3) was 82.86%. For the same molecule, the “Cell viability of HUVEC” value ([1]; log concentration (μM) 1.80618, replicate 1) was 75.32%, the “Cell viability of HUVEC” value ([1]; log concentration (μM) 1.80618, replicate 2) was 80.77% and the “Cell viability of HUVEC” value ([1]; log concentration (μM) 1.80618, replicate 3) was 73.08%. For the same molecule, the “Cell viability of HUVEC” value ([1]; log concentration (μM) 2.10721, replicate 1) was 65.68%, the “Cell viability of HUVEC” value ([1]; log concentration (μM) 2.10721, replicate 2) was 64.77% and the “Cell viability of HUVEC” value ([1]; log concentration (μM) 2.10721, replicate 3) was 61.91%. For the same molecule, the “Cell viability of HUVEC” value ([1]; log concentration (μM) 2.40824, replicate 1) was 56.53%, the “Cell viability of HUVEC” value ([1]; log concentration (μM) 2.40824, replicate 2) was 48.01% and the “Cell viability of HUVEC” value ([1]; log concentration (μM) 2.40824, replicate 3) was 52.83%. For the same molecule, the “Relative activity of GPX4” value ([2]; EJ cells, 8 h, pH 6.5, 40 μM, PBS group normalized as 1, #1) was 0.12, the “Relative activity of GPX4” value ([2]; EJ cells, 8 h, pH 6.5, 40 μM, PBS group normalized as 1, #2) was 0.09 and the “Relative activity of GPX4” value ([2]; EJ cells, 8 h, pH 6.5, 40 μM, PBS group normalized as 1, #3) was 0.17. The “Relative activity of GPX4” value ([2]; EJ cells, 8 h, pH 7.4, PBS group normalized as 1, #1) was 0.62, the “Relative activity of GPX4” value ([2]; EJ cells, 8 h, pH 7.4, PBS group normalized as 1, #2) was 0.73 and the “Relative activity of GPX4” value ([2]; EJ cells, 8 h, pH 7.4, PBS group normalized as 1, #3) was 0.69. The “Relative activity of GPX4” value ([2]; pH=6.5, replicate #1) was 0.21, the “Relative activity of GPX4” value ([2]; pH=6.5, replicate #2) was 0.24 and the “Relative activity of GPX4” value ([2]; pH=6.5, replicate #3) was 0.19. The “Relative activity of GPX4” value ([2]; pH=7.4, replicate #1) was 0.76, the “Relative activity of GPX4” value ([2]; pH=7.4, replicate #2) was 0.63 and the “Relative activity of GPX4” value ([2]; pH=7.4, replicate #3) was 0.6. The “particle size (DLS) after incubation at pH 6.5 for 1 h” value ([3]; 40 μM, PBS 0.01 M, pH 6.5, 1 h, 25 °C) was 78 ± 11 nm, the “particle size (DLS) before incubation” value ([3]; 40 μM, PBS 0.01 M, pH 6.5, before incubation, 25 °C) was 13 ± 3 nm and the “particle size change (DLS) at pH 7.4” value ([3]; 40 μM, PBS 0.01 M, pH 7.4) was “no obvious changes”. For the same molecule, the “size (DLS) at pH 7.4” value ([3]; pH 7.4, peer review response) was “about 11 ± 2 nm”, the “intracellular Fe^2+ (FerroOrange fluorescence), pH 6.5” value ([4]; EJ cells, pH 6.5, 40 μM, 8 h) was “substantially enhanced fluorescence” and the “intracellular Fe^2+ (FerroOrange fluorescence), pH 7.4” value ([4]; EJ cells, pH 7.4, 8 h) was “no remarkable fluorescence”. For the same molecule, the “Concentrations of Fe2+ ions” value ([4]; pH=6.5, replicate #1) was 22.485 ng/104cells, the “Concentrations of Fe2+ ions” value ([4]; pH=6.5, replicate #2) was 27.487 ng/104cells and the “Concentrations of Fe2+ ions” value ([4]; pH=6.5, replicate #3) was 29.009 ng/104cells. The “Concentrations of Fe2+ ions” value ([4]; pH=7.4, replicate #1) was 12.656 ng/104cells, the “Concentrations of Fe2+ ions” value ([4]; pH=7.4, replicate #2) was 15.918 ng/104cells and the “Concentrations of Fe2+ ions” value ([4]; pH=7.4, replicate #3) was 12.221 ng/104cells. The “Fnorm (‰), MST original data” value ([5]; ligand concentration 3.05176e-8 (μM)) was 933.824 ‰, the “Fnorm (‰), MST original data” value ([5]; ligand concentration 6.10352e-8 (μM)) was 930.278 ‰ and the “Fnorm (‰), MST original data” value ([5]; ligand concentration 1.2207e-7 (μM)) was 933.334 ‰. The “Fnorm (‰), MST original data” value ([5]; ligand concentration 2.44141e-7 (μM)) was 933.054 ‰, the “Fnorm (‰), MST original data” value ([5]; ligand concentration 4.88281e-7 (μM)) was 933.313 ‰ and the “Fnorm (‰), MST original data” value ([5]; ligand concentration 9.76563e-7 (μM)) was 936.876 ‰. The “Fnorm (‰), MST original data” value ([5]; ligand concentration 1.95313e-6 (μM)) was 940.785 ‰, the “Fnorm (‰), MST original data” value ([5]; ligand concentration 3.90625e-6 (μM)) was 940.492 ‰ and the “Fnorm (‰), MST original data” value ([5]; ligand concentration 7.8125e-6 (μM)) was 946.829 ‰. The “Fnorm (‰), MST original data” value ([5]; ligand concentration 1.5625e-5 (μM)) was 943.797 ‰, the “Fnorm (‰), MST original data” value ([5]; ligand concentration 3.125e-5 (μM)) was 948.084 ‰ and the “Fnorm (‰), MST original data” value ([5]; ligand concentration 6.25e-5 (μM)) was 945.991 ‰. For the same molecule, the “Fnorm (‰), MST original data” value ([5]; ligand concentration 0.000125 (μM)) was 949.08 ‰, the “Fnorm (‰), MST original data” value ([5]; ligand concentration 0.00025 (μM)) was 946.188 ‰ and the “Fnorm (‰), MST original data” value ([5]; ligand concentration 0.0005 (μM)) was 949.615 ‰. The “Fnorm (‰), MST original data” value ([5]; ligand concentration 0.001 (μM)) was 948.046 ‰.
